The text below walks through data of ChEMBL document CHEMBL1133986, “Design and synthesis of new potent human cytomegalovirus (HCMV) inhibitors based on internally hydrogen-bonded 1,6-naphthyridines” (Bioorg Med Chem Lett, 2001).

In brackets after ≈: the same amount, converted by molar mass.

The subject of experiment [1] is Hs68. Description: Inhibitory activity against Human cytomegalovirus (HCMV) in Hs 68 cell line determined by plaque reduction assay. Type of experiment: functional, cell-based.
The test system of experiment [2] is Hs68. Description: Cytotoxicity against the Hs 68 cell line. Type of experiment: functional. The conditions noted are these: Homo sapiens.

Compound `CC(C)Oc1ccccc1C/N=C(\S)c1ccc2cnccc2n1` returned an IC50 in the experiment on Hs68 [1] of 0.16 µg/mL (≈ 0.474 µM). The same compound came in with a CC50 in the experiment with Hs68 [2] of 11.1 µg/mL (≈ 32.9 µM).
The like results for `CCOc1ccccc1NC(=O)Nc1nc2ccncc2cc1C` were, in that order, greater than 25 µg/mL and greater than 100 µg/mL.
`CC(C)Oc1ccccc1NC(=O)Nc1ccc2cnccc2n1` displayed an IC50 in the experiment with Hs68 [1] of 0.03 µg/mL (≈ 0.0931 µM). In addition, the CC50 in the experiment on Hs68 [2] is 30.2 µg/mL (≈ 93.7 µM).
For `CCOc1ccccc1C/N=C(\S)c1ccc2cnccc2n1`, in that order: 0.1 µg/mL (≈ 0.309 µM) and 4.6 µg/mL (≈ 14.2 µM).
For `CCOc1ccccc1NC(=O)Nc1ccc2cncc(Br)c2n1`, in that order: 0.46 µg/mL (≈ 1.19 µM) and 9.3 µg/mL (≈ 24 µM).
The like results for `COc1ccccc1CNC(=O)Nc1ccc2cnccc2n1` were, in that order, 1 µg/mL (≈ 3.24 µM) and 13 µg/mL (≈ 42.2 µM).
In the experiment with Hs68 [1], `O=C(Nc1ccccc1)Nc1ccc2cnccc2n1` had an IC50 greater than 25 µg/mL. Besides, in the experiment on Hs68 [2], the CC50 is greater than 100 µg/mL.
For `CCOc1ccccc1NC(=O)Nc1nc2ccncc2cc1C#N`, in that order: greater than 25 µg/mL and less than 25 µg/mL.
For `O=C(NCc1ccccc1)Nc1ccc2cnccc2n1`, in that order: 0.29 µg/mL (≈ 1.04 µM) and 0.37 µg/mL (≈ 1.33 µM).
The like results for `COc1ccccc1C/N=C(\S)c1ccc2cnccc2n1` were, in that order, 0.93 µg/mL (≈ 3.01 µM) and 8.1 µg/mL (≈ 26.2 µM).
`CCOc1ccccc1NC(=O)Nc1ccc2cnccc2n1` showed an IC50 with Hs68 [1] of 0.14 µg/mL (≈ 0.454 µM). Besides, the midpoint of cytotoxicity in the experiment with Hs68 [2], the CC50, lay at 1.7 µg/mL (≈ 5.51 µM).
The like results for `CC(C)Oc1ccccc1CNC(=O)Nc1ccc2cnccc2n1` were, in that order, 0.01 µg/mL (≈ 0.0297 µM) and 18.9 µg/mL (≈ 56.2 µM).
As to `COc1ccccc1NC(=O)Nc1ccc2cnccc2n1`, in the experiment with Hs68 [1], the IC50 was determined as 1.2 µg/mL (≈ 4.08 µM). For the same compound, the cytotoxic concentration (CC50) in the experiment with Hs68 [2] came out at 33.9 µg/mL (≈ 115 µM).
